Test results reported in US10640495B2, “Heterocycle derivatives having TrkA inhibitory activity” (Shionogi & Co., Ltd., priority 2015, dated 2020).

target: human TrkA (Homo sapiens (Human), UniProt P04629); assay: Human TrkA inhibition assay (Test Example 2); assay type: biochemical; conditions: Table 156, human TrkA inhibition; read-out: IC50
Summary of the method: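 Recombinant TrkA (1 nmol/L) was preincubated 15 min at room temperature with compound in HEPES/MgCl2/DTT buffer, then reacted with FL-peptide 27 (1.5 μmol/L) and ATP (500 μmol/L) for 120 min at 37 °C. After EDTA stop, substrate phosphorylation was read by microfluidic mobility shift. IC50 came from logistic regression over 3-fold dilution series.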

human TrkA, sequence (P04629 440-796): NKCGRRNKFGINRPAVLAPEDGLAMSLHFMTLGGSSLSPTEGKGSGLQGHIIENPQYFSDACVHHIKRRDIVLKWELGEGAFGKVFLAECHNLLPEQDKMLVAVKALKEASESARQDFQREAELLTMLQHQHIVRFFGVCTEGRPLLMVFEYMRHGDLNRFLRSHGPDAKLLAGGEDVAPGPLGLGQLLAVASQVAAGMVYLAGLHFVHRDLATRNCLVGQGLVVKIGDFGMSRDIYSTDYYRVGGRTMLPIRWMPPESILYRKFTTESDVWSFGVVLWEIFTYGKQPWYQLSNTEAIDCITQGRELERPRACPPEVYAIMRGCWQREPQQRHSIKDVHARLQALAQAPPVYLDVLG

| IC50 [nM] | Structure (SMILES) |
| --- | --- |
| < 100 | COCCN1C[C@@H](NC(=O)Nc2c(C)c(OCC3CNCCO3)nn2-c2ccccc2)[C@H](c2ccc(F)c(F)c2)O1 (single isomer, unassigned) [Compound I-575] |
| < 100 | COCCN1C[C@@H](NC(=O)Nc2c(C)c(OCC3CNCCO3)nn2-c2ccccc2)[C@H](c2ccc(F)c(F)c2)O1 (single isomer, unassigned) [Compound I-576] |

same assay, conditions: Table 157, human TrkA inhibition; read-out: IC50

| IC50 [nM] | Structure (SMILES) |
| --- | --- |
| < 100 | COCCN1C[C@@H](NC(=O)Nc2c(C)c(-c3cnc4nc(C)oc4c3)nn2-c2ccccc2)[C@H](c2ccnc(F)c2)O1 (racemic) [Compound I-616] |
| > 1000 | COc1ncc(-c2nn(-c3ccccc3)c(NC(=O)N[C@@H]3CN(CCC(F)(F)F)O[C@H]3c3ccc(F)c(F)c3)c2C)cn1 (racemic) [Compound I-621] |
| > 1000 | Cc1c(-c2cnc3c(cnn3C)c2)nn(-c2ccccc2)c1NC(=O)N[C@@H]1CN(CCC(F)(F)F)O[C@H]1c1ccc(F)c(F)c1 (racemic) [Compound I-622] |
| 100 to 1000 | CNC(=O)c1cc(-c2nn(-c3ccccc3)c(NC(=O)N[C@@H]3CN(CCC(F)(F)F)O[C@H]3c3ccc(F)c(F)c3)c2C)cnc1OC (racemic) [Compound I-623] |
| < 100 | CCN1C[C@@H](NC(=O)Nc2c(C)c(-c3ccc4nccn4c3)nn2-c2ccccc2)[C@H](c2ccc(F)c(F)c2)O1 (racemic) [Compound I-624] |
| < 100 | CCN1C[C@@H](NC(=O)Nc2c(C)c(-c3ccn4ccnc4c3)nn2-c2ccccc2)[C@H](c2ccc(F)c(F)c2)O1 (racemic) [Compound I-625] |
| < 100 | CCN1C[C@@H](NC(=O)Nc2c(C)c(-c3cnc4c(c3)OCCO4)nn2-c2ccccc2)[C@H](c2ccc(F)c(F)c2)O1 (racemic) [Compound I-626] |
| < 100 | CCN1C[C@@H](NC(=O)Nc2c(C)c(-c3cnc(N4CC(OC)C4)nc3)nn2-c2ccccc2)[C@H](c2ccc(F)c(F)c2)O1 (racemic) [Compound I-628] |
| < 100 | Cc1c(-c2cccnc2)nn(-c2ccccc2)c1NC(=O)N[C@@H]1CN(CC(F)F)O[C@H]1c1ccc(F)c(F)c1 (racemic) [Compound I-629] |
| < 100 | Cc1c(-c2ccncc2)nn(-c2ccccc2)c1NC(=O)N[C@@H]1CN(CC(F)F)O[C@H]1c1ccc(F)c(F)c1 (racemic) [Compound I-630] |
| < 100 | CCN1C[C@@H](NC(=O)Nc2c(C)c(OC3CCN(C)CC3)nn2-c2ccccc2)[C@H](c2ccc(F)c(F)c2)O1 (racemic) [Compound I-631] |
| 100 to 1000 | CCN1C[C@@H](NC(=O)Nc2c(C)c(OC3CN(C)C3)nn2-c2ccccc2)[C@H](c2ccc(F)c(F)c2)O1 (racemic) [Compound I-632] |
| < 100 | COCCN1C[C@@H](NC(=O)Nc2c(C)c(OCC(N)=O)nn2-c2ccccc2)[C@H](c2ccnc(F)c2)O1 (racemic) [Compound I-633] |
| < 100 | CNC(=O)COc1nn(-c2ccccc2)c(NC(=O)N[C@@H]2CN(CCOC)O[C@H]2c2ccnc(F)c2)c1C (racemic) [Compound I-634] |
| < 100 | COCCN1C[C@@H](NC(=O)Nc2c(C)c(OCC(=O)NC3CC3)nn2-c2ccccc2)[C@H](c2ccnc(F)c2)O1 (racemic) [Compound I-635] |
| 100 to 1000 | CCN1C[C@@H](NC(=O)Nc2c(C)c(CCN(C)C)nn2-c2ccccc2)[C@H](c2ccc(F)c(F)c2)O1 (racemic) [Compound I-642] |
| < 100 | CCN1C[C@@H](NC(=O)Nc2c(C)c(OCc3cc(=O)ccn3C)nn2-c2ccccc2)[C@H](c2ccc(F)c(F)c2)O1 (racemic) [Compound I-644] |
| < 100 | CCN1C[C@@H](NC(=O)Nc2c(C)c(OCC(=O)NC)nn2-c2ccccc2)[C@H](c2ccc(F)c(F)c2)O1 (racemic) [Compound I-646] |
| < 100 | CCN1C[C@@H](NC(=O)Nc2c(C)c(OCC(=O)N(C)C)nn2-c2ccccc2)[C@H](c2ccc(F)c(F)c2)O1 (racemic) [Compound I-647] |
| < 100 | CCN1C[C@@H](NC(=O)Nc2c(C)c(OCC(=O)NC3CC3)nn2-c2ccccc2)[C@H](c2ccc(F)c(F)c2)O1 (racemic) [Compound I-648] |
| 100 to 1000 | CCN1C[C@@H](NC(=O)Nc2c(C)c(OCC(=O)NCCN(C)C)nn2-c2ccccc2)[C@H](c2ccc(F)c(F)c2)O1 (racemic) [Compound I-650] |
| < 100 | CCN1C[C@@H](NC(=O)Nc2c(C)c(OCC(=O)NCCO)nn2-c2ccccc2)[C@H](c2ccc(F)c(F)c2)O1 (racemic) [Compound I-651] |
| < 100 | CCN1C[C@@H](NC(=O)Nc2c(C)c(OCC(=O)NCC(C)(C)O)nn2-c2ccccc2)[C@H](c2ccc(F)c(F)c2)O1 (racemic) [Compound I-652] |

| IC50 [nM] | Structure (SMILES) |
| --- | --- |
| < 100 | Cc1c(OCC2CCN(C)CC2)nn(-c2ccccc2)c1NC(=O)N[C@@H]1CN(CC2CC2)O[C@H]1c1ccc(F)c(F)c1 (racemic) [Compound I-653] |
| < 100 | CCCN1C[C@@H](NC(=O)Nc2c(C)c(OCC3CCN(C)CC3)nn2-c2ccccc2)[C@H](c2ccc(F)c(F)c2)O1 (racemic) [Compound I-654] |
| 100 to 1000 | CCN1C[C@@H](NC(=O)Nc2c(C)c(OCC(C)(C)O)nn2-c2ccccc2)[C@H](c2ccc(F)c(F)c2)O1 (racemic) [Compound I-656] |
| < 100 | CCN1C[C@@H](NC(=O)Nc2c(C)c(OCC3CNC3)nn2-c2ccccc2)[C@H](c2ccc(F)c(F)c2)O1 (racemic) [Compound I-657] |
| < 100 | CCN1C[C@@H](NC(=O)Nc2c(C)c(OCC3CN(C)C3)nn2-c2ccccc2)[C@H](c2ccc(F)c(F)c2)O1 (racemic) [Compound I-658] |
| < 100 | CCN1C[C@@H](NC(=O)Nc2c(C)c(OCCCC(=O)NC)nn2-c2ccccc2)[C@H](c2ccc(F)c(F)c2)O1 (racemic) [Compound I-659] |
| < 100 | CCN1C[C@@H](NC(=O)Nc2c(C)c(OCCCN3CCCC3)nn2-c2ccccc2)[C@H](c2ccc(F)c(F)c2)O1 (racemic) [Compound I-661] |
| < 100 | CCN1C[C@@H](NC(=O)Nc2c(C)c(OCCCCN(C)C)nn2-c2ccccc2)[C@H](c2ccc(F)c(F)c2)O1 (racemic) [Compound I-662] |
| < 100 | CCN1C[C@@H](NC(=O)Nc2c(C)c(OCCCC(N)=O)nn2-c2ccccc2)[C@H](c2ccc(F)c(F)c2)O1 (racemic) [Compound I-663] |
| < 100 | CCN1C[C@@H](NC(=O)Nc2c(C)c(OCCCC(=O)N(C)C)nn2-c2ccccc2)[C@H](c2ccc(F)c(F)c2)O1 (racemic) [Compound I-664] |
| < 100 | CCN1C[C@@H](NC(=O)Nc2c(C)c(OCCCC(=O)NC3CC3)nn2-c2ccccc2)[C@H](c2ccc(F)c(F)c2)O1 (racemic) [Compound I-665] |
| < 100 | CCN1C[C@@H](NC(=O)Nc2c(C)c(OCCCC(=O)N3CCN(C)CC3)nn2-c2ccccc2)[C@H](c2ccc(F)c(F)c2)O1 (racemic) [Compound I-666] |
| < 100 | CCN1C[C@@H](NC(=O)Nc2c(C)c(OCCCC(=O)NCCN(C)C)nn2-c2ccccc2)[C@H](c2ccc(F)c(F)c2)O1 (racemic) [Compound I-667] |
| < 100 | CCN1C[C@@H](NC(=O)Nc2c(C)c(OCCCC(=O)NCCO)nn2-c2ccccc2)[C@H](c2ccc(F)c(F)c2)O1 (racemic) [Compound I-668] |
| < 100 | CCN1C[C@@H](NC(=O)Nc2c(C)c(OCCCC(=O)NCC(C)(C)O)nn2-c2ccccc2)[C@H](c2ccc(F)c(F)c2)O1 (racemic) [Compound I-669] |
| < 100 | CCN1C[C@@H](NC(=O)Nc2c(C)c(OCCCCO)nn2-c2ccccc2)[C@H](c2ccc(F)c(F)c2)O1 (racemic) [Compound I-670] |
| < 100 | CCN1C[C@@H](NC(=O)Nc2c(C)c(OCCC3CCNCC3)nn2-c2ccccc2)[C@H](c2ccc(F)c(F)c2)O1 (racemic) [Compound I-671] |
| < 100 | CCN1C[C@@H](NC(=O)Nc2c(C)c(OCCC3CCN(C)CC3)nn2-c2ccccc2)[C@H](c2ccc(F)c(F)c2)O1 (racemic) [Compound I-672] |
| 100 to 1000 | COCCN1C[C@@H](NC(=O)Nc2c(C(F)F)c(C)nn2-c2ccccc2)[C@H](c2ccnc(F)c2)O1 (racemic) [Compound I-673] |
| < 100 | CCCN1C[C@@H](NC(=O)Nc2c(C)c(-c3cnc(OC)nc3)nn2-c2ccccc2)[C@H](c2ccc(F)c(F)c2)O1 (racemic) [Compound I-676] |
| < 100 | CCCCN1C[C@@H](NC(=O)Nc2c(C)c(-c3cnc(OC)nc3)nn2-c2ccccc2)[C@H](c2ccc(F)c(F)c2)O1 (racemic) [Compound I-677] |
| 100 to 1000 | COc1ncc(-c2nn(-c3ccccc3)c(NC(=O)N[C@@H]3CN(CCCO)O[C@H]3c3ccc(F)c(F)c3)c2C)cn1 (racemic) [Compound I-678] |

| Structure (SMILES) | IC50 [nM] |
| --- | --- |
| CCN1C[C@@H](NC(=O)Nc2c(C)c(OCC(=O)N3CCN(C)CC3)nn2-c2ccccc2)[C@H](c2ccc(F)c(F)c2)O1 (racemic) [Compound I-649] | < 100 |

same assay, conditions: human TrkA 1 nmol/L, ATP 500 μmol/L, 120 min at 37° C.; read-out: IC50 values (TrkA phosphorylation inhibition)

| IC50 [nM] | Structure (SMILES) |
| --- | --- |
| 6.8 | COCCN1C[C@@H](NC(=O)Nc2c(C)c(-c3cnc(OCF)nc3)nn2-c2ccccc2)[C@H](c2ccnc(F)c2)O1 (racemic) [Compound I-620] |
| 4.8 | CCN1C[C@@H](NC(=O)Nc2c(C)c(-c3ccc(OC)nc3)nn2-c2ccccc2)[C@H](c2ccc(F)c(F)c2)O1 (racemic) [Compound I-627] |
| 68 | CCN1C[C@@H](NC(=O)Nc2c(C)c(OCC(N)=O)nn2-c2ccccc2)[C@H](c2ccc(F)c(F)c2)O1 (racemic) [Compound I-645] |
| 5 | CCN1C[C@@H](NC(=O)Nc2c(C)c(C3=CCN(C(=O)CO)CC3)nn2-c2ccccc2)[C@H](c2ccc(F)c(F)c2)O1 (racemic) [Compound I-655] |
| 70 | COCCN1C[C@@H](NC(=O)Nc2c(C(F)(F)F)c(C)nn2-c2ccccc2)[C@H](c2ccnc(F)c2)O1 (racemic) [Compound I-660] |
| 5.8 | COCCN1C[C@@H](NC(=O)Nc2c(Cl)c(-c3cnc(OC)nc3)nn2-c2ccccc2)[C@H](c2ccnc(F)c2)O1 (racemic) [Compound I-674] |
